Measurements taken from patent publication US20260207621A1 (Vividion Therapeutics, Inc., priority 2022, published 2026).

These compounds were tested on Nrf2 (assay: Nrf2 antagonism assay: ARE luciferase reporter in KYSE-70 cells). Details: Homo sapiens, KYSE-70, KYSE-70 cells, positive Imax corresponds to Nrf2 antagonism, read-out: KYSE70 Cellular ARE Luciferase Imax (%).
Format: cell-based
From the text: NRF2 binds to a promoter region, antioxidant response element (ARE), to initiate expression of multiple genes. ARE luciferase reporter assays are used to test whether a ligand can activate or repress the expression of target genes using luciferase as a reporter gene.
KYSE-70 is an esophageal squamous cell carcinoma cell line with a Nrf2 mutation at amino acid position W24C. This mutation lowers the affinity between the E3 ligase that includes KEAP1 and Nrf2, resulting in a state in which the synthesis rate of new Nrf2 is faster than the E3's degradation rate of Nrf2, resulting in a “Nrf2 high” state. In KYSE-70 cells, genes are inserted directly after the ARE that trigger the expression of luciferase. Without a NRF2 antagonist in this modified KYSE70 cell line which has an inherently “NRF2 high state”, luciferase is expressed, and a signal is observed.
Nrf2 antagonists bind at C151 of KEAP1 and stabilize the E3 which results in an increased degradation rate of Nrf2. Increased degradation of Nrf2 results in less expression of luciferase, and therefore a less intense signal.
An IC50 is generated from the dose-response curve and an Imax. A positive Imax corresponds to Nrf2 antagonism. Imax >90% correlates with in vivo tumor grown inhibition. Compounds with Imax >50% were included in this description.

Going from C=CC(=O)N1CCOCCC1c1cc(Cl)cc(-c2ncnc(N)n2)c1 (racemic) [Compound 152, 1-(5-(3-(4-amino-1,3,5-triazin-2-yl)-5-chlorophenyl)-1,4-oxazepan-4-yl)prop-2-en-1-one] to C=CC(=O)N1CCOC[C@H]1c1cc(Cl)cc(-c2ncnc(N)n2)c1 (single isomer, unassigned) [Compound 55], the Emax rises from 78% to 93%.

Compared with C=CC(=O)N1[C@H](C)COC[C@H]1c1cc(Cl)cc(-c2ncccn2)c1 (single isomer, unassigned) [Compound 20], C=CC(=O)N1[C@H](C)COC[C@H]1c1cc(Cl)cc(-c2ccnc(C)n2)c1 (single isomer, unassigned) [Compound 109] is higher in Emax: 67% for the first, 91% for the second.

Going from C=CC(=O)N1CCN(S(C)(=O)=O)C[C@H]1c1cc(Cl)cc(-c2nnn(C)n2)c1 (single isomer, unassigned) [Compound 21] to C=CC(=O)N1CCN(C(C)=O)C[C@H]1c1cc(Cl)cc(-c2nnn(C)n2)c1 (single isomer, unassigned) [Compound 22], the Emax rises from 54% to 64%.

Going from C=CC(=O)N1CCOCC1c1cc(Cl)nc(-c2nnn(C)n2)c1 (single isomer, unassigned) [Compound 23, 1-(3-(2-chloro-6-(2-methyl-2H-tetrazol-5-yl)pyridin-4-yl)morpholino)prop-2-en-1-one] to C=CC(=O)N1CCOCC1c1cc(Cl)nc(-c2ncnc(N)n2)c1 (single isomer, unassigned) [Compound 146, 1-(3-(2-(4-amino-1,3,5-triazin-2-yl)-6-chloropyridin-4-yl)morpholino)prop-2-en-1-one], the Emax rises from 55% to 71%.

Going from C=CC(=O)N1[C@H](C)COC[C@H]1c1cc(Cl)cc(-c2ccn(C)c(=O)c2)c1 (single isomer, unassigned) [Compound 24] to C=CC(=O)N1[C@H](C)COC[C@H]1c1cc(Cl)cc(-c2ccc(F)c(C(N)=O)c2)c1 (single isomer, unassigned) [Compound 108], the Emax falls from 73% to 70%.

First: C=CC(=O)N1CCOCC1c1cc(Cl)nc(-c2ccn(C)c(=O)c2)c1 (single isomer, unassigned) [Compound 25, 4-(4-acryloylmorpholin-3-yl)-6-chloro-1′-methyl-[2,4′-bipyridin]-2′(1′H)-one]
Second: C=CC(=O)N1CCOCC1c1cc(Cl)nc(-c2ccnnc2)c1 (single isomer, unassigned) [Compound 30, 1-(3-(2-chloro-6-(pyridazin-4-yl)pyridin-4-yl)morpholino)prop-2-en-1-one]
The Emax of the first is higher: 86% for the first, 72% for the second.

Going from C=CC(=O)N1CCOCC1c1cc(Cl)cc(-c2cnnc(OC)c2)c1 (single isomer, unassigned) [Compound 56, 1-(3-(3-chloro-5-(6-methoxypyridazin-4-yl)phenyl)morpholino)prop-2-en-1-one] to C=CC(=O)N1CCOC[C@H]1c1cc(Cl)cc(-c2cnnc(N)c2)c1 (single isomer, unassigned) [Compound 141], the Emax rises from 74% to 89%.

C=CC(=O)N1CCOCC1c1cc(Cl)cc(-c2ccn3cc(C)nc3c2)c1 (single isomer, unassigned) [Compound 57, 1-(3-(3-chloro-5-(2-methylimidazo[1,2-a]pyridin-7-yl)phenyl)morpholino)prop-2-en-1-one] and C=CC(=O)N1CCOC[C@H]1c1cc(Cl)cc(-c2cnn(C)c2)c1 (single isomer, unassigned) [Compound 116] are the same in Emax: 84% for the first, 84% for the second.

Compared with C=CC(=O)N1CCOCC1c1cc(Cl)cc(-c2cncc(C)n2)c1 (single isomer, unassigned) [Compound 59, 1-(3-(3-chloro-5-(6-methylpyrazin-2-yl)phenyl)morpholino)prop-2-en-1-one], C=CC(=O)N1CCOC[C@H]1c1cc(Cl)cc(-c2cn[nH]c2)c1 (single isomer, unassigned) [Compound 117] is higher in Emax: 81% for the first, 84% for the second.

Compared with C=CC(=O)N1CCOCC1c1cc(Cl)cc(-c2ccnc(C(N)=O)c2)c1 (single isomer, unassigned) [Compound 75, 4-(3-(4-acryloylmorpholin-3-y1)-5-chlorophenyl)picolinamide], C=CC(=O)N1CCOCC1c1cc(Cl)cc(-c2nccc3[nH]ccc23)c1 (single isomer, unassigned) [Compound 111, 1-(3-(3-chloro-5-(1H-pyrrolo[3,2-c]pyridin-4-yl)phenyl)morpholino)prop-2-en-1-one] is lower in Emax: 92% for the first, 90% for the second.

Compared with C=CC(=O)N1CC(C)(C)OCC1c1cc(Cl)nc(-c2ccnc(N)n2)c1 (single isomer, unassigned) [Compound 99, 1-(5-(2-(2-aminopyrimidin-4-yl)-6-chloropyridin-4-y1)-2,2-dimethylmorpholino)prop-2-en-1-one], C=CC(=O)N1[C@H](C)COC[C@H]1c1cc(Cl)nc(-c2ccnc(C)n2)c1 (single isomer, unassigned) [Compound 142] is lower in Emax: 82% for the first, 81% for the second.

Compared with C=CC(=O)N1[C@H](C)COC[C@H]1c1cc(Cl)cc(-c2ccnc(N)n2)c1 (single isomer, unassigned) [Compound 110], C=CC(=O)N1CCOCC1(C)c1cc(Cl)cc(-c2ccnc(N)n2)c1 (single isomer, unassigned) [Compound 113, 1-(3-(3-(2-aminopyrimidin-4-yl)-5-chlorophenyl)-3-methylmorpholino)prop-2-en-1-one] is higher in Emax: 93% for the first, 94% for the second.

Going from C=CC(=O)N1CCOCC1(C)c1cc(Cl)cc(-c2ncnc(N)n2)c1 (single isomer, unassigned) [Compound 112, 1-(3-(3-(4-amino-1,3,5-triazin-2-yl)-5-chlorophenyl)-3-methylmorpholino)prop-2-en-1-one] to C=CC(=O)N1CCOCC12COc1c(-c3ncnc(N)n3)cc(Cl)cc12 (single isomer, unassigned) [Compound 151, 1-(7-(4-amino-1,3,5-triazin-2-yl)-5-chloro-2H-spiro[benzofuran-33′-morpholino]-4′-yl)prop-2-en-1-one], the Emax falls from 95% to 81%.

Going from C=CC(=O)N1CCOCC1(C)c1cc(Cl)cc(-c2ccc(F)c(C(N)=O)c2)c1 (single isomer, unassigned) [Compound 114, 3′-(4-acryloyl-3-methylmorpholin-3-yl)-5′-chloro-4-fluoro-[1,1′-biphenyl]-3-carboxamide] to C=CC(=O)N1CCOC[C@H]1c1cc(Cl)cc(-c2cnn(C3CC3)c2)c1 (single isomer, unassigned) [Compound 115], the Emax falls from 87% to 74%.

Compared with C=CC(=O)N1CCOC[C@H]1c1cc(Cl)cc(-n2cc(C)cn2)c1 (single isomer, unassigned) [Compound 118], C=CC(=O)N1CCOCC1c1cc(Cl)nc(-c2cc(N)ncn2)c1 (single isomer, unassigned) [Compound 119, 1-(3-(2-(6-aminopyrimidin-4-yl)-6-chloropyridin-4-yl)morpholino)prop-2-en-1-one] is higher in Emax: 63% for the first, 96% for the second.

Going from C=CC(=O)N1CC2(CC2)OCC1c1cc(Cl)cc(-c2cc(N)ncn2)c1 (single isomer, unassigned) [Compound 140, 1-(6-(3-(6-aminopyrimidin-4-yl)-5-chlorophenyl)-4-oxa-7-azaspiro[2.5]octan-7-yl)prop-2-en-1-one] to C=CC(=O)N1CC2(CC2)OCC1c1cc(Cl)cc(-c2ncnc(N)n2)c1 (single isomer, unassigned) [Compound 153, 1-(6-(3-(4-amino-1,3,5-triazin-2-y1)-5-chlorophenyl)-4-oxa-7-azaspiro[2.5]octan-7-yl)prop-2-en-1-one], the Emax rises from 72% to 94%.
